Source: paper PMC8876800, “Neuropsychopharmacology of Emerging Drugs of Abuse: meta- and para-Halogen-Ring-Substituted α-PVP (“flakka”) Derivatives” (International Journal of Molecular Sciences, 2022)

Columns and labels:
hSERT [1] = target: T1, hSERT (Homo sapiens, UniProt P31645); test: Transporter binding assay, [3H]imipramine displacement in HEK293 membranes; design: expressed in transfected cells
Procedure: (§1) To prepare membranes, HEK293 cells expressing monoamine transporters were harvested from 80–90% confluent dishes. In short, cells were washed with ice-cold phosphate buffered saline (PBS) twice. An extra 5 mL of PBS was added, and cells were mechanically detached using a plastic scraper and subsequently pelleted by centrifugation (400× g for 10 min at 4 °C). The resulting pellet was resuspended in hypotonic HME buffer (20 mM HEPES NaOH, 1 mM EDTA, 2 mM MgCl2; pH 7.4) and then subjected to two freeze-thaw cycles in liquid nitrogen and homogenization through sonication at 4 °C. Membranes were collected by centrifugation (40,000× g for 30 min at 4 °C) and resuspended in an appropriate volume of HME buffer. Protein concentration was determined using the Bio-Rad Protein Reagent (Bio Rad Laboratories, Hercules, CA, USA). Membrane preparations were kept at −80 °C.
(§2) This non-specific binding also allows subtracting the binding to other components such as the microfiber filters or membrane lipids from the total binding values. Incubation was performed for 1 h at 22 °C. […] The filters were then placed into vials and scintillation cocktail was added. The trapped radioactivity was quantified by liquid scintillation counting. Specific binding of each drug to the transporter was defined as the difference between total binding (binding buffer in absence of drug) and non-specific binding.
(§3) Data were expressed as mean ± SEM. […] High ratios indicate greater selectivity for DAT.

hDAT [2] = target: T2, hDAT (Homo sapiens, UniProt Q01959); test: Transporter binding assay, [3H]WIN35,428 displacement in HEK293 membranes; design: expressed in transfected cells; conditions: for hDAT/hSERT Affinity Ratio: ratio of binding affinities at hDAT and hSERT
T2 sequence (Q01959 whole entry): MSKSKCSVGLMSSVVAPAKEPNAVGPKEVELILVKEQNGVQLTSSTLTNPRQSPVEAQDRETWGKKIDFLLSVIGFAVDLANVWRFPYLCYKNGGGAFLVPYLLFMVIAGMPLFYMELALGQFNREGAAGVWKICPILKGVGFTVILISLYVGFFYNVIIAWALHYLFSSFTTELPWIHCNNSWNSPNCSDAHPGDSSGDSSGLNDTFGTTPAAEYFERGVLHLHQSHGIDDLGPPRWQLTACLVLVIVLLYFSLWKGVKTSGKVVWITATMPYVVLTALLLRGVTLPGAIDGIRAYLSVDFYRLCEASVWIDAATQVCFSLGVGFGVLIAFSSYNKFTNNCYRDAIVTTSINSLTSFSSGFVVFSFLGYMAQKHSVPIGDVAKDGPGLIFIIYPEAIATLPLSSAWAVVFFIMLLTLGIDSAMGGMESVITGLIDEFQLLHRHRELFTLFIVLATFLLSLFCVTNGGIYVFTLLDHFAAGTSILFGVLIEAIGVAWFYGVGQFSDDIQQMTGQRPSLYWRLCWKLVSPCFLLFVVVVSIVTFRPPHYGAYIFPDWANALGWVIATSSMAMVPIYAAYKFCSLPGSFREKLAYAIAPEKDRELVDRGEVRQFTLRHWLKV
Procedure: as §1
as §2, with “(hSERT assay, final concentration 3 nM)) diluted in the corresponding reaction buffer, 15 µg of membranes in 100 µL of reaction buffer, and 125 µL of the tested drug dilution. […] This” for “This”
Data were expressed as mean ± SEM.

Swiss CD-1 mice [3] = test: Open field test: center vs. periphery (anxiety-like behavior); type: in vivo; conditions: for acute anxiogenic effect (time in center of open field): 2.5, 10 and 25 mg kg−1 i.p., acute administration
Procedure: (§4) Male Swiss CD-1 mice (Janvier, Le Genest, France) weighing 30–35 g (6–8 weeks old) were randomly assigned to an experimental group. The animals were housed (seven per cage) in polycarbonate cages with wood-derived bedding, in temperature-controlled conditions (22 ± 1 °C) under a 12 h light/dark cycle and had ad libitum access to food (standard laboratory diet, Panlab SL, Barcelona, Spain) and drinking water. All animal care and experimental protocols in this study were approved by the Animal Ethics Committee of the University of Barcelona under the supervision of the Autonomous Government of Catalonia and are in accordance with the guidelines of the European Community Council (2010/63/EU), as amended by Regulation (EU) 2019/1010. Efforts were made to minimize animal use and suffering. All studies involving animals comply with the ARRIVE guidelines. The animals were supervised before and throughout the study, immediately after injection, and during the behavioral experiment as well as 24 h after injection, and different parameters were visually evaluated for humane endpoints, such as abnormal posture, greater loss than 20%, self-mutilations, and strange vocalizations.
Open-field experiments are straight-forward tests that evaluate the animals’ activity in response to novelty (or anxiogenic environment) and pharmacological treatments. Each animal was placed into the center of an open field arena, with sufficient height to prevent the animals from escaping (25 cm length × 25 cm width × 40 cm height), and the time spent (in seconds) in the center (8 × 8 cm) or the periphery of the arena was monitored for 60 min (Smart 3.0 Panlab, Barcelona, Spain).
as §3

hSERT [4] = target: T1, hSERT; test: Uptake inhibition assay, [3H]5-HT uptake in transfected HEK293 cells
hDAT [5] = target: T2, hDAT; test: Uptake inhibition assay, [3H]MPP+ uptake in transfected HEK293 cells; conditions: for potency at inhibiting DAT relative to cocaine: [3H]MPP+ uptake at hDAT, vs cocaine
Swiss CD-1 mice [6] = test: Horizontal locomotor activity (HLA); type: in vivo; conditions: for duration of the increase in locomotor activity: medium dose 10 mg kg−1 i.p., time course; for HLA vs saline group: 2.5 mg kg−1 i.p., distance travelled in 60 min
Procedure: as §4
A habituation phase was performed to reduce the novelty and stress associated with handling and injection. In this habituation phase, all mice received, for two consecutive days, an intraperitoneal (i.p.) saline injection and were then placed into a black Plexiglass open field arena (25 × 25 × 40 cm) under low-light conditions and white noise for 30 min. On the test day, the horizontal locomotor activity (HLA) produced by the tested cathinones was measured as described by, with minor modifications. Briefly, the animals received the corresponding i.p. injection (saline 5 mL kg^−1, 3-F-α-PVP, 4-F-α-PVP, 3-Cl-α-PVP, 4-Cl-α-PVP, 3,4-Cl2-α-PVP, 3-Br-α-PVP or 4-Br-α-PVP 2.5, 10 or 25 mg kg^−1 and were immediately placed in the open field arena with the same conditions of light and noise. HLA was video-monitored for 1 h, and their total travelled distance (in cm) was measured using a specific tracking software (Smart 3.0 Panlab, Barcelona, Spain).
as §3

Swiss CD-1 mice [7] = test: Conditioned place preference (CPP); type: in vivo; conditions: for CPP rewarding effects vs saline: highest dose 25 mg kg−1 i.p.
Procedure: as §4
A place conditioning paradigm was used to determine the potential of the seven α-PVP derivatives to induce rewarding effects. The apparatus that is used for this test consists of two compartments, with differences in tactile and visual cues, communicated by a central corridor. Conditioned place preference (CPP) was performed as described by. Briefly, CPP was performed in three phases: preconditioning test and conditioning and post-conditioning test. During the preconditioning phase, mice had free access to both compartments during 15 min, and the time spent in each compartment was recorded and monitored (Smart 3.0 Panlab, Barcelona, Spain). During the conditioning phase (8 sessions), access to the corridor was closed, and mice received an i.p. injection of the corresponding α-PVP derivative and were immediately placed into one of the compartments for 20 min. The doses tested are in accordance with the ones used in the HLA experiment. On the alternative session, mice were placed for 20 min in the other compartment after receiving a saline i.p. injection. Mice in the control group received a saline injection in every session. The compartment and session in which mice received the drug was randomized. On the test day (post-conditioning phase), the same conditions as in the pre-conditioning phase applied. A preference score, expressed in seconds, was calculated as the difference between the time spent in the drug-paired compartment in the post-conditioning test minus the time spent in the preconditioning phase.
as §3

T1 sequence (P31645 whole entry): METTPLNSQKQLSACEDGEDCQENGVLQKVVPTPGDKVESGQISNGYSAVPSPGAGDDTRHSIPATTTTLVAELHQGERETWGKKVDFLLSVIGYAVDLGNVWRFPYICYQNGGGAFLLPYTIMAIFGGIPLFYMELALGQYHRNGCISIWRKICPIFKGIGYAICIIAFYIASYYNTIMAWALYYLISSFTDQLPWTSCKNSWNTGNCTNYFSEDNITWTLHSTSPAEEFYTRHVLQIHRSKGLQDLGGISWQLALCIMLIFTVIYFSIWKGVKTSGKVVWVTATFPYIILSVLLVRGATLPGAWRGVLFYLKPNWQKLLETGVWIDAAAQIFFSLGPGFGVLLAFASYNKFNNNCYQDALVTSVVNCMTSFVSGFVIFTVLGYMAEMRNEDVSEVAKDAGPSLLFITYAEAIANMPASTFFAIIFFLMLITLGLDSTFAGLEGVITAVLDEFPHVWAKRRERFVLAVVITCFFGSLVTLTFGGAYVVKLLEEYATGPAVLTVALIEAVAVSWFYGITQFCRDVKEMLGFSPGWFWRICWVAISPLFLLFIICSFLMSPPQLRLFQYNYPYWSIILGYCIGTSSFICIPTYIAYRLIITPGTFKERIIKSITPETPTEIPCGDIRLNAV

SMILES | Ki (hSERT [1]) [nM] | Ki (hDAT [2]) [nM] | hDAT/hSERT Affinity Ratio (hDAT [2]) | acute anxiogenic effect (time in center of open field) (Swiss CD-1 mice [3]) | IC50 (hSERT [4]) [nM] | IC50 (hDAT [5]) [nM] | hDAT/hSERT Inhibition Ratio (hDAT [5]) | duration of the increase in locomotor activity (Swiss CD-1 mice [6]) [min] | CPP rewarding effects vs saline (Swiss CD-1 mice [7]) | time in center of open field at the lowest dose (Swiss CD-1 mice [3]; 2.5 mg kg−1 i.p.) | HLA vs saline group (Swiss CD-1 mice [6]) | HLA dose-response at the highest dose (Swiss CD-1 mice [6]; 25 mg kg−1 i.p.) | potency at inhibiting DAT relative to cocaine (hDAT [5]) [fold] | CPP rewarding properties vs saline (Swiss CD-1 mice [7]; lowest dose 2.5 mg kg−1 i.p.) | time in center of open field at the highest dose (Swiss CD-1 mice [3]; 25 mg kg−1 i.p., effect only at this dose)
CCCC(C(=O)c1ccc(Cl)cc1)N1CCCC1 (stereo not drawn) [4-Cl-α-PVP, 4-Chloro-α-Pyrrolidinopentiophenone] | 7900 | 16 | 478 | anxiogenic effect | 15200 | 391 | 38 | < 60 | did not induce significant rewarding effects |  |  |  |  |  | 
CCCC(C(=O)c1cccc(Cl)c1)N1CCCC1 (stereo not drawn) [3-Cl-α-PVP, 3-Chloro-α-Pyrrolidinopentiophenone] | 16400 | 13 | 1234 | anxiogenic effect | 33300 | 349 | 95 |  | did not induce significant rewarding effects | anxiogenic effects | significant effect | ceiling effect |  |  | 
CCCC(C(=O)c1cccc(Br)c1)N1CCCC1 (stereo not drawn) [3-Br-α-PVP, 3-Bromo-α-Pyrrolidinopentiophenone] | 5600 | 12 | 470 | anxiogenic effect | 40000 | 117 | 341 |  | significant increase of the rewarding effects |  |  |  | 2 | did not show rewarding properties | 
CCCC(C(=O)c1ccc(F)cc1)N1CCCC1 (stereo not drawn) [4-F-α-PVP, 4-Fluoro-α-Pyrrolidinopentiophenone] | 57900 | 49 | 1173 | anxiogenic effect | > 100000 | 154 | 1366 |  | significant increase of the rewarding effects |  |  |  | 2 |  | decrease in the time spent in the center
CCCC(C(=O)c1cccc(F)c1)N1CCCC1 (stereo not drawn) [3-F-α-PVP, 3-Fluoro-α-Pyrrolidinopentiophenone] | 63500 | 14 | 4540 | anxiogenic effect | > 100000 | 132 | 1819 |  |  |  | significant effect |  | 2 |  | 
CCCC(C(=O)c1ccc(Cl)c(Cl)c1)N1CCCC1 (stereo not drawn) [3,4-Cl-α-PVP, 3,4-Dichloro-α-Pyrrolidinopentiophenone] | 4990 | 11 | 462 | anxiogenic effect | 12700 | 266 | 47 |  | significant increase of the rewarding effects |  |  |  |  |  | 
CCCC(C(=O)c1ccccc1)N1CCCC1 (stereo not drawn) [α-PVP, α-Pyrrolidinopentiophenone] | > 100000 | 17 | 8514 |  | > 100000 | 129 | 3418 |  |  |  |  |  |  |  | 
CCCC(C(=O)c1ccc(Br)cc1)N1CCCC1 (stereo not drawn) [4-Br-α-PVP, 4-Bromo-α-Pyrrolidinopentiophenone] | 1250 | 24 | 52 | did not cause acute anxiogenic effects | 23100 | 156 | 148 | < 60 | significant increase of the rewarding effects |  |  |  | 2 |  | 
